Laboratory results as given in US20240194290A1, “HIDDEN ANTIBIOTICS IN THE HUMAN PROTEOME” (THE TRUSTEES OF THE UNIVERSITY OF PENNSYLVANIA, priority 2021, published 2024).
Ends that are not written are not given here.

Columns and labels:
A. baumannii ATCC19606 = assay: Outer membrane permeabilization (NPN uptake) assay; format: cell-based, Acinetobacter baumannii; conditions: peptides at MIC, compared to untreated control and polymyxin B
Experimental: (§1) FIG. 3. Synergy, resistance development and mechanism of action studies of encrypted peptides. […] (FIG. 3B) Evolution of resistance by A. baumannii to encrypted peptides derived from the CUB domain (red) or polymyxin B (gray) after 30 days of serial passaging in liquid nutrient broth. Peptides and antibiotics were used at sub-inhibitory concentrations. Cells were passaged every 48 h. […] (FIG. 3D) Cytoplasmic membrane depolarization effects of the encrypted peptides against A. baumannii. (FIG. 3E) NPN assays showing the effect of encrypted peptides derived from the CUB domain and natriuretic peptide on permeabilization of the outer membrane of A. baumannii.
In order to investigate the mode of action of encrypted peptides against bacterial cells, assays were performed to study their effects on the bacterial membrane. First, the ability of encrypted peptides to disrupt and depolarize the bacterial cytoplasmic membrane was assessed […]. 3,3′-dipropylthiadicarbocyanine iodide [DiSC3(5)] was used, a potentiometric fluorophore that accumulates and aggregates in the cytoplasmic membrane, quenching its fluorescence. Upon imbalances of the cytoplasmic membrane transmembrane potential, the fluorophore migrates to the cytoplasm or the outer environment, generating fluorescence. […]
Methods: Membrane depolarization assays. The cytoplasmic membrane depolarization activity of the peptides was determined by measurements of fluorescence of the membrane potential-sensitive dye, DiSC3(5). […] Thereafter, the cells (100 μL) were incubated for 15 min with 20 nmol L^−1 of DiSC3(5) until a stable reduction of fluorescence was achieved, indicating the incorporation of the dye into the bacterial membrane. Membrane depolarization was then monitored by observing the change in the fluorescence emission intensity of the membrane potential-sensitive dye, DiSC3(5) (λex=622 nm, λem=670 nm), after the addition of peptides (100 μL solution at MIC values). […] The membrane permeability of the peptides was determined by using the N-phenyl-1-napthylamine (NPN) uptake assay. […]

P. aeruginosa PAO1 = assay: Outer membrane permeabilization (NPN uptake) assay; format: cell-based, Pseudomonas aeruginosa; conditions: peptides at MIC
Experimental: (§2) FIG. 10. Membrane permeabilization and depolarization assays for several bacterial strains. […] FIG. 10B: Cytoplasmic membrane depolarization assays performed against P. aeruginosa PAO1 and the gut commensal B. fragilis ATCC25285.
(§3) Methods: Membrane depolarization assays. The cytoplasmic membrane depolarization activity of the peptides was determined by measurements of fluorescence of the membrane potential-sensitive dye, DiSC3(5). Briefly, A. baumannii ATCC19606, P. aeruginosa PAO1 and B. fragilis ATCC25285 were grown at 37° C. with agitation until they reached mid-log phase (OD600=0.5). […] Thereafter, the cells (100 μL) were incubated for 15 min with 20 nmol L^−1 of DiSC3(5) until a stable reduction of fluorescence was achieved, indicating the incorporation of the dye into the bacterial membrane. Membrane depolarization was then monitored by observing the change in the fluorescence emission intensity of the membrane potential-sensitive dye, DiSC3(5) (λex=622 nm, λem=670 nm), after the addition of peptides (100 μL solution at MIC values). […] The membrane permeability of the peptides was determined by using the N-phenyl-1-napthylamine (NPN) uptake assay. […] The background fluorescence was recorded at λex=350 nm and λem=420 nm. […]

B. fragilis ATCC25285 = assay: Outer membrane permeabilization (NPN uptake) assay; format: cell-based, Bacteroides fragilis; conditions: peptides at MIC
Experimental: as §2, §3

S. epidermidis = assay: Outer membrane permeabilization (NPN uptake) assay; format: cell-based, Staphylococcus epidermidis; conditions: peptides at MIC
Experimental: as §2, §3

A. baumannii = assay: Bacterial resistance development assay (serial passaging); format: cell-based, Acinetobacter baumannii; conditions: after 26 days of serial passaging at sub-inhibitory concentrations
Experimental: as §1
In any antibiotic discovery effort, it is crucial to assess how readily the molecules identified select for resistance mechanisms in bacteria, as the emergence of resistance has hampered the antibiotic field since its very inception with the discovery of penicillin in 1928^38. To determine whether bacteria become resistant to encrypted peptides, longitudinal resistance assays were performed with peptides derived from the CUB domains 1 and 3 against A. baumannii, using polymyxin B as a control (FIG. 3B).
Methods: Bacterial resistance development assays. The evolution of resistance by A. baumannii cells to encrypted peptides was monitored for 30 days of serial passaging in liquid nutrient broth. […]

Substance	outer membrane permeabilization (NPN fluorescence) (A. baumannii ATCC19606)	outer membrane permeabilization (NPN) (P. aeruginosa PAO1)	outer membrane permeabilization (NPN) (B. fragilis ATCC25285)	outer membrane permeabilization (NPN) (S. epidermidis)	increase of concentrations needed to kill A. baumannii (A. baumannii) [fold]
natriuretic peptide: peptide hormone responsible for inducing the excretion of sodium by the kidneys (P01160) (SLRRSSCFGGRMDRIGAQSGLGCNSFRY; ends and bridges not checked; cysteine pairing not given here; UniProt P01160 124-151, looked up)	increased fluorescence	permeabilized	permeabilized	permeabilized	
polymyxin B					≤ 256
